Data: PMC6673703, “14-3-3 signal adaptor and scaffold proteins mediate GPCR trafficking” (Scientific Reports, 2019)

Target: T1, sphingosine-1-phosphate receptor 1 (S1PR1) (Homo sapiens, UniProt P21453)
T1 construct: full-length, C-terminal TEV fusion
Assay: LinkLight S1PR1/β-arrestin interaction assay in HEK293 cells
Assay type: cell-based

T1 sequence (P21453 whole entry, the tested form may be a part): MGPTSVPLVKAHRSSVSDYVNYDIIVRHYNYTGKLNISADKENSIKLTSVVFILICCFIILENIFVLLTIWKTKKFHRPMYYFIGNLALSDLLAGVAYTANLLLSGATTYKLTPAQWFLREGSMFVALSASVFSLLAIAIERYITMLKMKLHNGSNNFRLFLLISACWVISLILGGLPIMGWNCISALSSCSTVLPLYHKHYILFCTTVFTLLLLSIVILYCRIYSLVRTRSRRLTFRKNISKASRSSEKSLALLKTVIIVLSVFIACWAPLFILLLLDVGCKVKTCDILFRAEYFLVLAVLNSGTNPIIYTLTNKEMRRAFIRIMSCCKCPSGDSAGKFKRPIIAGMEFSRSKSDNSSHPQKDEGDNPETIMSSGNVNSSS
T1 sequence (P32121 whole entry partner, the tested form may be a part): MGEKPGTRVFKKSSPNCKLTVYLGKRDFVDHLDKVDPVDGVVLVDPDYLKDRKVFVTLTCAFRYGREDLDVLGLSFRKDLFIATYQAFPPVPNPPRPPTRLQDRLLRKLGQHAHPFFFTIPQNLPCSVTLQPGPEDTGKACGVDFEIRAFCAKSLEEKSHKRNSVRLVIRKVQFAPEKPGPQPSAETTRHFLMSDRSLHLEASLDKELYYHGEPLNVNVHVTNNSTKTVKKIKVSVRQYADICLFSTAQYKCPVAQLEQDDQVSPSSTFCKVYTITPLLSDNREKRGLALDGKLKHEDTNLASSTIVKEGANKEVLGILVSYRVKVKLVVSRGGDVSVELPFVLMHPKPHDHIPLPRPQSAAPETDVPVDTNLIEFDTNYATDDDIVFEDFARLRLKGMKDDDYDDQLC

Molecule `CCCCCCCCCCCCC/C=C/[C@@H](O)[C@@H](N)COP(=O)(O)O` [S1P] has an EC50 of 129 nM.
